Results taken from ChEMBL document CHEMBL1153245, “A profile of the in vitro anti-tumor activity of imidazolium-based ionic liquids” (2010).

Key:
Format in all cases: functional
SN12C = assay: Anticancer activity against human SN12C cells after 48 hrs by sulforhodamine B assay; conditions: Homo sapiens, SN12C, 48 h
HCT-15 = assay: Anticancer activity against human HCT15 cells after 48 hrs by sulforhodamine B assay
PC-3 = assay: Anticancer activity against human PC3 cells assessed cell growth at 10 uM after 48 hrs by sulforhodamine B assay relative to control
CAKI-1 = assay: Anticancer activity against human Caki1 cells after 48 hrs by sulforhodamine B assay; conditions: Homo sapiens, CAKI-1, 48 h
RXF 393 [1] = assay: Anticancer activity against human RXF393 cells after 48 hrs by sulforhodamine B assay; conditions: Homo sapiens, RXF 393, 48 h
LOX IMVI [2] = assay: Anticancer activity against human LOXIMVI cells after 48 hrs by sulforhodamine B assay
MDA-MB-468 = assay: Anticancer activity against human MDA-MB-468 cells assessed cell growth at 10 uM after 48 hrs by sulforhodamine B assay relative to control
NCI-H460 = assay: Anticancer activity against human NCI-H460 cells assessed cell growth at 10 uM after 48 hrs by sulforhodamine B assay relative to control
T47D = assay: Anticancer activity against human T47D cells after 48 hrs by sulforhodamine B assay; conditions: Homo sapiens, T47D, 48 h
SNB-19 = assay: Anticancer activity against human SNB19 cells assessed cell growth at 10 uM after 48 hrs by sulforhodamine B assay relative to control
OVCAR-8 = assay: Anticancer activity against human OVCAR8 cells assessed cell growth at 10 uM after 48 hrs by sulforhodamine B assay relative to control
MDA-MB-231 = assay: Anticancer activity against human MDA-MB-231 cells after 48 hrs by sulforhodamine B assay
786-0 = assay: Anticancer activity against human 786-0 cells after 48 hrs by sulforhodamine B assay; conditions: Homo sapiens, 786-0, 48 h
MCF7 [3] = assay: Anticancer activity against human MCF7 cells after 48 hrs by sulforhodamine B assay
MCF7 [4] = assay: Anticancer activity against human MCF7 cells assessed cell growth at 10 uM after 48 hrs by sulforhodamine B assay relative to control
MDA-MB-435 = assay: Anticancer activity against human MDA-MB-435 cells after 48 hrs by sulforhodamine B assay; conditions: Homo sapiens, MDA-MB-435, 48 h
SK-OV-3 = assay: Anticancer activity against human SKOV3 cells after 48 hrs by sulforhodamine B assay
K562 = assay: Anticancer activity against human K562 cells after 48 hrs by sulforhodamine B assay
OVCAR-3 = assay: Anticancer activity against human OVCAR-3 cells after 48 hrs by sulforhodamine B assay; conditions: Homo sapiens, OVCAR-3, 48 h
RXF 393 [5] = assay: Anticancer activity against human RXF393 cells assessed cell growth at 10 uM after 48 hrs by sulforhodamine B assay relative to control
LOX IMVI [6] = assay: Anticancer activity against human LOXIMVI cells assessed cell growth at 10 uM after 48 hrs by sulforhodamine B assay relative to control
UACC-257 = assay: Anticancer activity against human UACC257 cells after 48 hrs by sulforhodamine B assay
SW-620 = assay: Anticancer activity against human SW620 cells after 48 hrs by sulforhodamine B assay; conditions: Homo sapiens, SW-620, 48 h
MOLT-4 = assay: Anticancer activity against human MOLT4 cells after 48 hrs by sulforhodamine B assay
TK-10 = assay: Anticancer activity against human TK10 cells assessed cell growth at 10 uM after 48 hrs by sulforhodamine B assay relative to control
SK-MEL-5 = assay: Anticancer activity against human SK-MEL-5 cells after 48 hrs by sulforhodamine B assay; conditions: Homo sapiens, SK-MEL-5, 48 h
HOP-92 = assay: Anticancer activity against human HOP92 cells after 48 hrs by sulforhodamine B assay; conditions: Homo sapiens, HOP-92, 48 h
A549 = assay: Anticancer activity against human A549 cells assessed cell growth at 10 uM after 48 hrs by sulforhodamine B assay relative to control
IGROV-1 = assay: Anticancer activity against human IGROV1 cells assessed cell growth at 10 uM after 48 hrs by sulforhodamine B assay relative to control
M14 = assay: Anticancer activity against human M14 cells after 48 hrs by sulforhodamine B assay; conditions: Homo sapiens, M14, 48 h
HOP-62 = assay: Anticancer activity against human HOP62 cells assessed cell growth at 10 uM after 48 hrs by sulforhodamine B assay relative to control
HT-29 = assay: Anticancer activity against human HT-29 cells after 48 hrs by sulforhodamine B assay
HCC 2998 = assay: Anticancer activity against human HCC2998 cells after 48 hrs by sulforhodamine B assay; conditions: Homo sapiens, HCC 2998, 48 h
SR = assay: Anticancer activity against human SR cells after 48 hrs by sulforhodamine B assay
COLO 205 = assay: Anticancer activity against human COLO205 cells after 48 hrs by sulforhodamine B assay; conditions: Homo sapiens, COLO 205, 48 h
OVCAR-4 = assay: Anticancer activity against human OVCAR4 cells after 48 hrs by sulforhodamine B assay
NCI/ADR-RES = assay: Anticancer activity against human NCI/ADR-RES cells after 48 hrs by sulforhodamine B assay; conditions: Homo sapiens, NCI/ADR-RES, 48 h
BT-549 = assay: Anticancer activity against human BT549 cells after 48 hrs by sulforhodamine B assay
[7] = Anticancer activity against human […] cells after 48 hrs by sulforhodamine B assay; conditions: Homo sapiens, RPMI8266, 48 h
NCI-H322M = assay: Anticancer activity against human NCI-H322M cells assessed cell growth at 10 uM after 48 hrs by sulforhodamine B assay relative to control
UO-31 = assay: Anticancer activity against human UO31 cells assessed cell growth at 10 uM after 48 hrs by sulforhodamine B assay relative to control
[8] = read-out: LC50 (the source's name)

Work on CCCCCCCCCCCCCCCCCC[n+]1ccn(C)c1.[Cl-] yielded a GI50 (SN12C) of 679 nM, an LC50 (SN12C) of 4770 nM and a GI50 (HCT-15) of 461 nM. For the same compound, the CC50 (HCT-15; Homo sapiens, HCT-15, 48 h, read-out: LC50 (the source's name)) was 4110 nM, the Activity (PC-3) was -54.01% and the GI50 (CAKI-1) was 429 nM. It also gave an LC50 (CAKI-1) of 7450 nM, a GI50 (RXF 393 [1]) of 265 nM and an LC50 (RXF 393 [1]) of 4900 nM. The GI50 (LOX IMVI [2]) was 189 nM, the CC50 (LOX IMVI [2]; [8]) was 1480 nM and the Activity (MDA-MB-468) was -42.33%. It also gave an Activity (NCI-H460) of -62.94%, a GI50 (T47D) of 546 nM and a CC50 (T47D; [8]) of over 100000 nM. It also gave an Activity (SNB-19) of -47.53%, an Activity (OVCAR-8) of -20.19% and a GI50 (MDA-MB-231) of 449 nM. It also gave a CC50 (MDA-MB-231; Homo sapiens, MDA-MB-231, 48 h, read-out: LC50 (the source's name)) of 4860 nM, a GI50 (786-0) of 669 nM and an LC50 (50% lethal concentration) (786-0) of 6020 nM. The GI50 (MCF7 [3]) was 356 nM, the LC50 (50% cell kill) (MCF7 [3]; Homo sapiens, MCF7, 48 h) was 3780 nM and the Activity (MCF7 [4]) was -33.81%. It also gave a GI50 (MDA-MB-435) of 684 nM, a CC50 (MDA-MB-435; [8]) of 7960 nM and a GI50 (SK-OV-3; Homo sapiens, SK-OV-3, 48 h) of 1240 nM. The CC50 (SK-OV-3; [8]) was over 100000 nM, the GI50 (K562) was 385 nM and the CC50 (K562; Homo sapiens, K562, 48 h, read-out: LC50 (the source's name)) was over 100000 nM. For the same compound, the GI50 (OVCAR-3) was 375 nM, the LC50 (50% lethal concentration) (OVCAR-3) was 4010 nM and the Activity (RXF 393 [5]) was -28.27%. For the same compound, the Activity (LOX IMVI [6]) was 0.13%, the GI50 (UACC-257) was 125 nM and the LC50 (UACC-257; Homo sapiens, UACC-257, 48 h) was 6770 nM. The GI50 (SW-620) was 446 nM, the LC50 (SW-620) was 4720 nM and the GI50 (MOLT-4) was 189 nM. It also gave an LC50 (MOLT-4) of 2160 nM, an Activity (TK-10) of -70.24% and a GI50 (SK-MEL-5) of 414 nM. For the same compound, the CC50 (SK-MEL-5; [8]) was 3970 nM, the GI50 (HOP-92) was 1140 nM and the CC50 (HOP-92; [8]) was 6850 nM. It also gave an Activity (A549) of -15.21%, an Activity (IGROV-1) of -43.92% and a GI50 (M14) of 330 nM. The LC50 (50% lethal concentration) (M14) was 6630 nM, the Activity (HOP-62) was -58.64% and the GI50 (HT-29; Homo sapiens, HT-29, 48 h) was 315 nM. For the same compound, the CC50 (HT-29; [8]) was 5520 nM, the GI50 (HCC 2998) was 296 nM and the CC50 (HCC 2998; [8]) was 7770 nM. For the same compound, the GI50 (SR) was 154 nM, the CC50 (SR; [8]) was 3790 nM and the GI50 (COLO 205) was 285 nM. It also gave a CC50 (COLO 205; [8]) of over 100000 nM, a GI50 (OVCAR-4; Homo sapiens, OVCAR-4, 48 h) of 778 nM and a CC50 (OVCAR-4; [8]) of over 100000 nM. It also gave a GI50 (NCI/ADR-RES) of 1660 nM, an LC50 (NCI/ADR-RES) of over 100000 nM and a GI50 (BT-549) of 557 nM. It also gave a CC50 (BT-549; Homo sapiens, BT-549, 48 h, read-out: LC50 (the source's name)) of 5330 nM, a GI50 [7] of 27 nM and a CC50 [7, 8] of 1210 nM. For the same compound, the Activity (NCI-H322M) was 5.3% and the Activity (UO-31) was -61.43%.
